{
  "source": "patent US12415939B2",
  "about": "“Nano-adhesive and surface primer compound and use thereof” (The Regents of the University of California, priority 2015, dated 2025)",
  "key": {"[1]": {"assay": "Lap shear test of cured PMA resin on primed tooth enamel", "design": "species or system human", "protocol": "1 wt % primer solution was spread on mica, glass, tooth enamel, or a silicon wafer and incubated for 1 min, followed by thorough washing with methanol (for MDP, P1-P3) or DMSO (for P4) and drying by flowing nitrogen. The surfaces were exposed to a basic aqueous solution (pH 9, using sodium hydroxide), incubated for 1 min, and drying by flowing nitrogen (see FIG. 52). The methacrylic comonomer blend (Bis-GMA, TEGDMA, DMAEMA and CQ) was packed in a gelatin capsule (size #4, 5-mm diameter, Torpac Inc.) and placed up on top of the primer-treated substrates. The comonomer blend was cured (or crosslinked) for 1 min using a portable dental curing lamp (Foshan Liang Ya Dental Co., LY-A180, 420-480 nm, 1200-2000 mW·cm^−2) (see FIG. 53). Uniaxial compression was applied to the capsule at a rate of 0.05 inch min^−1 using a materials testing system (MTS Bionix 200) until the capsules are separated from the substrate. The lap shear fracture measurements were repeated at least 10 times for each condition."}, "[2]": {"assay": "SFA adhesion of cured PMA resin between primer-treated mica surfaces", "protocol": "Atomically-smooth muscovite mica sheets were freshly cleaved (thickness of 2-5 μm) and attached on another large freshly cleaved mica backing sheet under a laminar flow hood and placed in a desiccator for clean storage. To ensure use of a fresh surface for each experiment, mica was peeled away from the backing sheet and glued on cylindrical disks using an epoxy glue (EPON 1004 F® from Exxon Chemicals). In each experiment, the mica surfaces were treated with one of the primer solutions, as described for the lap shear experiments, and then mounted in the SFA in a cross cylindrical geometry. In contrast to typical SFA experiments, which use an interferometric method to calculate the disk-disk separation distances and thus the interaction forces, in the SFA used here for adhesion testing, the disk separations were directly measured using semiconductor strain-gauged double cantilever springs (k=1000-10000 N/m)(see FIG. 67). After separating the surfaces, 100 […]1 of comonomer blend was injected between the two surfaces. Then, ˜600 mN of load was applied, followed by visible light curing for 1 min using the portable dental curing lamp (see FIG. 54G). Adhesion strength of cured polymer toward the mica was measured by detaching (unloading) two surfaces. All loading and unloading were performed using a coarse micrometer at the velocity of […]. The SFA measurements were repeated at least 5 times for each condition."}, "[3]": {"assay": "QCM-D adsorption of primers", "format": "physicochemical", "conditions": "for surface concentration of adsorbed layer: Sauerbrey, after rinsing", "protocol": "A ‘static cell’ (often called ‘Open Module’) QCM-D (Q-Sense, Biolin Scientific) was employed to quantitatively evaluate the adsorption of each primer onto SiO2 surface using a quartz sensor (QSX 303, Biolin Scientific). Changes in resonance frequency (ΔF) and dissipation (ΔD) of the SiO2 were recorded and used to measure the adsorbed mass and layer viscoelasticity, respectively, of the primer deposited on the sensor. In detail, pure solvent (100 μl) was dropped onto the sensor and equilibrated for ˜20-30 min. Then, 2 wt % primer solution (100 μl) was dropped onto the sensor (this is labeled “Solution Drop-in” in FIG. 51) and equilibrated until the frequency and dissipation signals stabilized. To remove unbound primers, the sensor was rinsed with solvents (this is labeled “Solvent Rinsing” in FIG. 51) and equilibrated until frequency and dissipation signals stabilized.\nMass loss of P3 and P4 during the rinsing was negligible compared to P2 which lost 60% of initial mass, indicating outstanding adsorption efficiency of catechol-containing primers on SiO2 surfaces even compared to mussel foot protein adsorption (˜30% loss of mfp-3s^3). The priming thickness of P4 estimated by QCM-D is ˜3.1 nm which agrees with the average height of AFM images (˜3.5 nm), assuming that QCM-D measures the average thickness of a uniform layer. The smaller average thickness of P4 (˜3.1 nm) compared to the molecular contour length (˜4.8 nm) may be attributed to the flexible alkyl spacer in P4. The possibility of a softer, more flexible layer with P4 is supported by a higher change in dissipation (ΔD) compared to other primers."}, "[4]": {"assay": "Surface forces apparatus (SFA) cohesion/adhesion between thin films on mica", "format": "physicochemical", "conditions": "for cohesion (or adhesion) energy Wc: symmetric films adsorbed from 5 mM, DI water", "protocol": "The interaction between two surfaces can be measured with nano-Newton level force resolution and Angstrom level resolution in the separation distance between the surfaces. The details of the SFA techniques have been describe in a work by Israelachvili et al. In a typical SFA experiment (FIG. 2C), the distance and the force between the surfaces are measured simultaneously. To begin with, the instrument is calibrated at large separation distances. When the two surfaces are not interacting, i.e., they are separated by large distances, the change in the separation between them is equal to the distance through which the motor moves the lower surface towards or away from the upper surface (or the upper surface driven by the piezo-tube moves towards the lower surface). However, once the surfaces are close enough to start interacting with each other, the measured separation distance deviates from the expected separation calibrated when there is no force between the surfaces. This deviation is due to the deflection of the double cantilever spring and is directly proportional to the force acting normally between the two opposing surfaces. Thus the normal force can be measured using Hooke's law, F=kΔx, where k is the spring constant of the double-cantilever spring and Δx=Dactual−Dapplied is the deflection of the spring, determined by taking the difference between the applied change in position of one of the surfaces Dapplied and the actual change in distance measured between the surfaces Dactual. The actual distance, Dactual, between the surfaces can be measured by multiple beam interferometry (MBI) and will be discussed below.\nThe distance between the surfaces, shape of the interface and the refractive index of the media between the surfaces can be accurately determined by Multiple Beam Interferometry (MBI) technique. In this technique, white light is directed through two back-silvered mica surfaces (or uniform and same thickness). As a white light passes between the mica surfaces, it undergoes interference due to the optical trap set up by the back silver on each of these surfaces giving rise to discrete wavelengths of light (FIG. 2C). These wavelengths of light are resolved in a spectrometer creating interference fringes known as ‘fringes of equal chromatic order’ (FECO). Since mica is birefringent, the FECO appears as doublets and termed as β and γ. Alternate fringes are termed as odd and even fringes with odd fringes having nodes at the center and even fringes with anti-nodes in the center. The FECO is then recorded on a camera and analyzed to determine the distance between the surfaces using the following equations: […]\nThe adhesion/cohesion energy of the synthetic zwitterionic molecules was investigated in SFA (SurForce LLC, Santa Barbara, CA). Two molecularly smooth freshly cleaved back silvered mica surfaces glued on cylindrical silica discs of radius of curvature, R˜2 cm, were mounted in the SFA and 50 μL of a colloidal dispersion of the synthetic molecules in DI water were injected between the surfaces at different concentrations (C=0.5-5 mM) and the forces between the thin films of the molecules were measured by Multiple Beam Interferometry (MBI). The adhesion forces between Z-Cat-C10 molecules on various surfaces, e.g., silica and copper, were also measured by AFM (MFP-3D, Asylum research, Goleta, CA) in DI water and ambient conditions, respectively, at room temperature. AFM probes with a silicon dioxide particle (10, 5, and 1 μm, respectively) on a silicon nitride (SN) cantilever-0.6 N m^−1 were purchased from Novascan Technologies, Inc (Ames, IA). Cantilever spring constants were measured for each force run. Images of Z-Cat-C10 coating on silicon wafer and copper plates were visualized in an AFM. […]"}, "[5]": {"assay": "Cyclic voltammetry of catechol oxidation", "format": "physicochemical", "conditions": "DI water, scan rate 1 mV s−1, Ag/AgCl reference", "protocol": "(§1) Cyclic voltammetry was performed on a Versastat 3 potentiostat from Ametek Co. These analyses were carried out using a three-electrode cell: a Pt wire as the counter electrode, an Ag/AgCl reference electrode, and a Carbon paste electrode (CPE) served as the working electrode. CPE is the best choice for adhesive materials because of its ability to be completely polished before each experiment. Catechol auto-oxidation was avoided by performing all electrochemical experiments with degassed deionized water in a glove bag under argon. Scan rate 1 mV s-1 was used for all experiments. CV of 5 mM synthesized polymers and 5 mM methyl catechol, a simple catechol-containing compound, were compared. Oxidation of Catechol carrying molecules occurred at more positive potentials than methyl catechol, indicating the unique structure of the dispersions provide shielding effects that stabilized catechol groups (FIG. 3).\nCyclic voltammetry was performed on a Versastat 3 potentiostat from Ametek Co. (Berwyn, PA). These analyses were carried out using a three-electrode cell: a Pt wire as the counter electrode, an Ag/AgCl reference electrode, and a Carbon paste electrode (CPE) served as the working electrode. CPE is the best choice for adhesive materials because of its ability to be completely polished before each experiment.\nas §1, with “s^−1” for “s-1”, “molecules” for “polymers”, “groups. Z-Cat-Ben with an oxidation peak at 840 mV is more resistant to oxidation than the other species” for “groups”, “42).” for “3).”"}},
  "data": [
    {"compound": "C=CC(=O)OCc1ccc(O)cc1", "note": "[P2, 4-Hydroxybenzyl acrylate]", "values": [
      {"measurement": "lap shear strength σshear,max", "setting": "[1]", "result": "no increase in the lap shear strength"},
      {"measurement": "increase in adhesion vs plain mica (no primer)", "setting": "[2]", "result": "no increase in adhesion"},
      {"measurement": "surface concentration of adsorbed layer", "setting": "[3]", "result": 230, "unit": "ng/cm^2"},
      {"measurement": "mass loss during rinsing", "setting": "[3]; of initial mass", "result": 60, "unit": "%"}
    ]},
    {"compound": "C=CC(=O)OCc1ccccc1", "note": "[P1, Benzyl acrylate, reference compound]", "values": [
      {"measurement": "lap shear strength σshear,max", "setting": "[1]", "result": "no increase in the lap shear strength"},
      {"measurement": "increase in adhesion vs plain mica (no primer)", "setting": "[2]", "result": "no increase in adhesion"},
      {"measurement": "surface concentration of adsorbed layer", "setting": "[3]", "result": 0, "unit": "ng/cm^2"}
    ]},
    {"compound": "CN(C)CCOP(=O)(O)OCCCc1ccc(O)c(O)c1", "note": "[Z-Cat-C8]", "values": [
      {"measurement": "interaction energy", "setting": "[4]; 0.5 mM concentration", "result": "~22", "unit": "mJ m^−2"},
      {"measurement": "cohesion (or adhesion) energy Wc", "setting": "[4]; mica", "result": "2.5±0.3", "unit": "mJ m^−2"}
    ]},
    {"compound": "CN(C)CCOP(=O)(O)OCCCc1ccc(O)c(O)c1", "note": "[Z-Cat-C6]", "values": [
      {"measurement": "cohesion (or adhesion) energy Wc", "setting": "[4]; mica", "result": "9.6±1.1", "unit": "mJ m^−2"}
    ]},
    {"compound": "Cc1ccc(O)c(O)c1", "note": "[4-methylcatechol, reference compound]", "values": [
      {"measurement": "E1/2", "setting": "[5]", "result": "~0.12", "unit": "V"},
      {"measurement": "E1/2", "setting": "[5]; listed as methyl catechol", "result": 0.124, "unit": "V"}
    ]},
    {"compound": "CN(C)CCOP(=O)(O)OCCCc1ccc(O)c(O)c1", "note": "[Z-Cat-C4]", "values": [
      {"measurement": "cohesion (or adhesion) energy Wc", "setting": "[4]; mica", "result": "19.2±2.4", "unit": "mJ m^−2"}
    ]},
    {"compound": "C=C(C)C(=O)OCCCCCCCCCCOP(=O)(O)O", "note": "[MDP, 10-methacryloyloxydecyl dihydrogen phosphate, reference compound]", "values": [
      {"measurement": "lap shear strength σshear,max", "setting": "[1]", "result": "3.1±0.2", "unit": "MPa"}
    ]},
    {"compound": "CN(C)CCOP(=O)(O)OCCCc1ccccc1", "note": "[Z-Ben-C8]", "values": [
      {"measurement": "film (hard-wall) thickness", "setting": "[4]; deposited at 0.5 mM in DI water", "result": 2, "unit": "nm"},
      {"measurement": "hard-wall thickness", "setting": "[4]; films adsorbed from 5 mM, mica", "result": "~5", "unit": "nm"},
      {"measurement": "cohesion (or adhesion) energy Wc", "setting": "[4]; mica", "result": "without cohesive tendencies"}
    ]}
  ]
}
